What was measured:
RA mice = assay: Migration of T cells, B cells and myeloid cells into the joint spaces of RA mice, synovial fluid flow cytometry; format: in vivo; details: dosing as in Experimental Example 3, similar to MTX-treated group, FIG. 7
Description: The polypeptide of the present invention, a saline solution, or MTX was administered to RA mice in the same manner as in EXPERIMENTAL EXAMPLE 3, and synovial fluid was obtained from the joint spaces of the mice of all the experimental groups. After the total cell number in the synovial fluid was counted, flow cytometry analysis was performed in the same manner as in EXPERIMENTAL EXAMPLE 3 to measure the number of T cells (CD3^+), B cells (CD19^+), and myeloid cells (CD11b^+, Gr-1^+) migrated to the joint spaces. The results are illustrated in FIG. 7.

mice with RA = assay: Transmigration of lymphocytes and myeloid cells in the spleens of RA mice, flow cytometry; format: in vivo; details: spleen, i.p. at 2-day intervals for 4 weeks, similar to MTX-treated group, FIG. 6
Text: A polypeptide of SEQ ID NO: 26 (40 MOOD) was intraperitoneally administered to mice with RA, which had been induced in the same manner in EXPERIMENTAL EXAMPLE 2, at 2-day intervals for 4 weeks. Normal mice, saline-treated RA mice with intraperitoneal injection of a saline solution, and MTX-treated RA mice with intraperitoneal injection of a solution of MTX (100 □) in a saline solution (100 □) were used as control groups. Spleen tissues were harvested from the mice of all the experimental groups and washed with RPMI 1640 media, and single cells were isolated. After the total number of the single cells were counted, the single cells were stained with monoclonal antibodies (anti-CD3^+, CD4^+, CD8^+, CD11^+, CD19^+, CD69^+, Gr-1^+) capable of labeling T cells (CD3^+, CD4^+, CD8^+), activated T cells (CD3^+, CD69^+), B cells (CD19^+), and myeloid cells (CD11^+, Gr-1^+), and flow cytometry analysis was performed. The number of lymphocytes and myeloid cells migrated to […] was measured by determining the number of the T cells, the activated T cells, the B cells, and the myeloid cells per total cell number, and the results are illustrated in FIG. 6.

[1] = test system: B16-F10-Luc-G5 cells (mouse melanoma cell line); assay: In vivo transmigration of cancer cells, B16-F10-Luc-G5 injected into tail veins, lung and liver nodules; details: nude mice; 100 μg i.p. at 2-day intervals for 15 days; control peptide SEQ ID NO: 27; FIG. 17
Description: B16-F10-Luc-G5 cells (mouse melanoma cell line, Xenogen, U.S.A.) were injected into the tail veins of 10 nude mice (5 weeks old). The nude mice were divided into five mice for a control group and five mice for a test group. The control group was injected with a mixture of PBS with a peptide consisting of EEFDDAEEFDD (SEQ ID NO: 27) (control peptide) and the test group with a mixture of PBS with 100 μg of a peptide of SEQ ID NO: 26. The control peptide and the peptide of SEQ ID NO: 26 were intraperitoneally administered to the control group and the test group, respectively, at 2-day intervals for 15 days. Then, the nude mice were dissected and the lungs and livers were excised from the nude mice. Tumor nodules were counted.

SEQ ID NO: 26: polypeptide derived from the mouse CD99, corresponds to the polypeptide of SEQ ID No: 14 derived from human CD99 (SGGISDSDLAD; listed as Mus musculus)
number of T cells, B cells and myeloid cells migrated to joint spaces, relative to saline-treated group (RA mice): 50-70% | migrated cell numbers of T cells, activated T cells, B cells and myeloid cells as fraction of saline-treated group (mice with RA): about ⅔ | degree of spread of melanoma (lung and liver nodules) relative to control group [1]: about 40%
